# Results from US20110288151A1, “METHODS OF CHARACTERIZING BREAST CANCER AND IDENTIFYING TREATMENTS FOR SAME” (The Trustees of the University of Pennsylvania, priority 2008, published 2011).
# Columns and labels:
# Rac [1] = assay: Rac-GTP pull-down, HRG-treated MCF-7 cells; format: cell-based, human; conditions: HRG 100 ng/ml, 5 min, pharmacological inhibitor
# Description: FIG. […] Rac-GTP levels were determined by a Rac-GTP pull-down assay of lysates of the treated cells. […]
# As described above, Gβγ subunits are known to activate PI3Kγ. As Rac activation by HRG is affected by PTX as shown in Example 10, the involvement of PI3Kγ in the response was investigated.
# To further investigate the role of PI3Kγ, PI3Kγ depleted MCF-7 cell lines were generated using PI3Kγ (#1 and #2) and non-target sequence (NTS) control shRNA lentiviruses (Sigma) (FIG. 16B).
# To determine whether CXCR4 is involved in HRG responses, CXCR4 expression was knocked down using RNAi in MCF-7 cells. […] Such a mechanism has important implications in tumorigenesis and metastatic dissemination.
# Rac1 = assay: Rac1-GTP GST pull down, HRG-treated MCF-10A cells; format: cell-based, human; conditions: serum-starved MCF-10A cells, HRG 100 ng/ml 5 min, pretreatment (1 h; PTX 24 h)
# Description: The image of the immunoblot depicts Rac1-GTP levels as determined by a GST pull down assay of serum-starved MCF-10A cells treated with HRG (100 ng/ml, 5 min), with or without pretreatment with PI3K inhibitor wortmannin, EGFR inhibitor AG1478, PI3Kγ inhibitor 5-quinoxalin-6-ylmethylene-thiazolidine-2,4-dione (1 mM, 1 h), or PTX (24 h) (FIG. 17).
# P-Rex1 = P-Rex1 sub-cellular localization in MCF-7 cells (fluorescence microscopy); format: cell-based, human; conditions: HRG 10 ng/mL 10 min, Wortmannin 1 μM, antibodies 10 μg/mL 1 hr
# Description: Cells were then fixed and stained with the antibody of Example 1 to detect P-Rex1 and subject to staining with a secondary Cy2-conjugated antibody, and visualized with fluorescence microscopy. […] (FIG. 12A and FIG. 12B).
# To test whether this effect of HRG on P-Rex1 localization was dependent on PI3K, MCF-7 breast cancer cells were serum starved for 48 hours, treated for 10 minutes with HRG (10 ng/mL), with or without Wortmannin (1 μM), an anti-ErbB3 blocking antibody (10 μg/mL, 1 hr) or control IgG and stained and visualized (FIG. 12B).
# Rac [2] = assay: Rac activation by HRG or EGF in breast cancer cell lines (GST-Raf-PBD pull-down); format: cell-based; conditions: various breast cancer cell lines, HRG 10 ng/mL or EGF 100 ng/mL, 0-5 minutes, n=3
# T-47D cells = assay: Membrane ruffles in T-47D cells; format: cell-based, human; conditions: T-47D cells treated with HRG or EGF
# Description: HRG is known to cause morphological changes, including the formation of lamellipodia and membrane ruffles.
# FIG. 14E is a bar graph depicting reduced colony formation, in response to treatment with HRG (10 ng/mL), in the P-Rex1 depleted cell lines of FIG. 14A as compared to control cells.
compound,measurement,setting,value
"O=C1NC(=O)C(=Cc2ccc3nccnc3c2)S1 [5-quinoxalin-6-ylmethylene-thiazolidine-2,4-dione]",Rac activation by HRG,Rac [1],dose-dependently reduced Rac activation by HRG
same,sensitivity of Rac1 activation by HRG,Rac1,insensitive
COc1cc2ncnc(Nc3cccc(Cl)c3)c2cc1OC [AG1478],sensitivity of Rac1 activation by HRG,Rac1,blocked Rac activation
CC(C)(C)n1nc(-c2ccc(Cl)cc2)c2c(N)ncnc21 [PP2],effect on HRG-induced P-Rex1 localization,P-Rex1,did not have such an effect
"EGF: epidermal growth factor (NSDSECPLSHDGYCLHDGVCMYIEALDKYACNCVVGYIGERCQYRDLKWWELR; UniProt P01133 971-1023, looked up)",Rac activation,Rac [2],activate Rac
same,ruffle formation on ligand treatment,T-47D cells,characteristic ruffles were observed
